In ChEMBL document CHEMBL5550180, “Enhancing anti-cancer capacity: Novel class I/II HDAC inhibitors modulate EMT, cell cycle, and apoptosis pathways” (Bioorg Med Chem, 2024):
Calls of active or inactive are those of the source. No cut-off for these calls is given here.

What was measured:
A549 [1] = assay: Induction of cell cycle arrest in human A549 cells assessed as effect on cyclin B1 level at 2.5 to 5 uM incubated for 48 hrs by Western blot analysis; type: functional, cell-based; conditions: dose 2.5-5 µM
A549 [2] = assay: Induction of cell cycle arrest in human A549 cells assessed as effect on p21 level at 2.5 to 5 uM incubated for 48 hrs by Western blot analysis; type: functional, cell-based; conditions: dose 2.5-5 µM
HT-29 [3] = assay: Induction of cell cycle arrest in human HT-29 cells assessed as accumulation at G2/M phase at 2.5 to 5 uM incubated for 24 to 48 hrs by PI-staining based flow cytometric analysis; type: functional; conditions: dose 2.5-5 µM, time 24-48 hrs
[4] = Toxicity in zebrafish embryo assessed as formation of spinal curvature at 0.5 to 2.5 uM measured after 96 hrs post fertilization by microscopic analysis; parameters: species or system Danio rerio; conditions: in vivo, dose 0.5-2.5 µM
HT-29 [5] = assay: Inhibition of cell migration in human HT-29 cells at 0.5 uM measured at 24 hrs by wound healing assay (reference value: 85.7%); values are per cent of control; conditions: HT-29, 24 h
[6] = Toxicity in zebrafish embryo assessed as yolk sac edema at 0.5 to 2.5 uM measured after 96 hrs post fertilization by microscopic analysis; parameters: species or system Danio rerio; conditions: in vivo, dose 0.5-2.5 µM
HT-29 [7] = assay: Inhibition of colony formation in human HT-29 cells at 50 to 100 nM measured for 10 days by crystal violet staining based analysis; type: functional, cell-based; conditions: dose 50-100 nM, time 10.0 day
[8] = Toxicity in zebrafish embryo assessed as formation of scoliosis at 0.5 to 2.5 uM measured after 96 hrs post fertilization by microscopic analysis; parameters: species or system Danio rerio; conditions: in vivo, dose 0.5-2.5 µM
[9] = Toxicity in zebrafish embryo assessed as formation of spinal curvature at 1 to 5 uM measured after 96 hrs post fertilization by microscopic analysis; parameters: species or system Danio rerio; conditions: in vivo, dose 1-5 µM
HT-29 [10] = assay: Inhibition of cell migration in human HT-29 cells assessed as downregulation of slug level at 1 to 2 uM incubated for 48 hrs by Western blot analysis; type: functional, cell-based; conditions: dose 1-2 µM
A549 [11] = assay: Induction of cell cycle arrest in human A549 cells assessed as accumulation at sub G1 at 2.5 to 5 uM incubated for 24 to 48 hrs by PI-staining based flow cytometric analysis; type: functional; conditions: dose 2.5-5 µM, time 24-48 hrs
HT-29 [12] = assay: cells; type: functional, cell-based; conditions: Homo sapiens, HT-29, 48 h
Description: Anticancer activity against human HT-29 cells assessed as inhibition of cell growth measured for 48 hrs by MTT assay

[13] = biological target: T1, Histone deacetylase (Homo sapiens) (UniProt Q13547+O15379+Q9UBN7+Q92769+Q9UQL6+Q8WUI4+Q9BY41+Q96DB2+P56524+Q9UKV0+Q969S8); assay: Inhibition of HDAC in human HT-29 cells assessed as increase in acetyl alpha-tubulin level at 1 to 2 uM incubated for 48 hrs by Western blot analysis; type: cell-based; conditions: dose 1-2 µM
A549 [14] = assay: Inhibition of cell migration in human A549 cells at 1.25 uM measured at 48 hrs by wound healing assay (reference value: 42.3%); values are per cent of control; conditions: A549, 48 h
[15] = Toxicity in zebrafish embryo assessed as survival rate at 0.5 to 2.5 uM measured after 72 hrs post fertilization; parameters: species or system Danio rerio; conditions: in vivo, dose 0.5-2.5 µM
A549 [16] = assay: Inhibition of cell migration in human A549 cells at 1.25 uM measured immediately by wound healing assay (reference value: 100%); values are per cent of control
HT-29 [17] = assay: Anticancer activity against human HT-29 cells assessed as suppression of cell viability at 10 uM incubated for 48 hrs by MTT assay; type: functional, cell-based
HT-29 [18] = assay: Inhibition of cell migration in human HT-29 cells assessed as upregulation of E-cadherin level at 1 to 2 uM incubated for 48 hrs by Western blot analysis; type: functional, cell-based; conditions: dose 1-2 µM
NCI-H1299 = assay: Anticancer activity against human NCI-H1299 cells assessed as reduction in cell viability at 10 to 40 uM incubated for 48 hrs by MTT assay; type: functional, cell-based; conditions: dose 10-40 µM
A549 [19] = assay: Anticancer activity against human A549 cells assessed as suppression of cell viability at 10 uM incubated for 48 hrs by MTT assay; type: functional, cell-based
A549 [20] = assay: Anticancer activity against human A549 cells assessed as viable cells by measuring green fluorescence intensity measured for 48 hrs by Calcein AM staining based fluorescent microscopic analysis; type: functional, cell-based; conditions: dose 1-20 µM
HT-29 [21] = assay: Inhibition of cell migration in human HT-29 cells at 0.5 uM measured immediately by wound healing assay (reference value: 100%); values are per cent of control
HT-29 [22] = assay: Anticancer activity against human HT-29 cells assessed as viable cells by measuring green fluorescence intensity measured for 48 hrs by Calcein AM staining based fluorescent microscopic analysis; type: functional, cell-based; conditions: dose 1-20 µM
A549 [23] = assay: Induction of apoptosis in human A549 cells assessed as increase in PARP level at 2.5 to 5 uM incubated for 48 hrs by Western blot analysis; type: functional, cell-based; conditions: dose 2.5-5 µM
A549 [24] = assay: Inhibition of colony formation in human A549 cells at 125 to 250 nM measured for 10 days by crystal violet staining based analysis; type: functional, cell-based; conditions: dose 125-250 nM, time 10.0 day
A549 [25] = assay: Anticancer activity against human A549 cells cultured as 3D spheroids assessed as suppression of cell growth at 10 uM incubated for 48 hrs by celltiter-glo luminescent assay; type: functional, cell-based
HT-29 [26] = assay: Inhibition of cell migration in human HT-29 cells at 0.5 uM measured at 48 hrs by wound healing assay (reference value: 73.2%); values are per cent of control; conditions: HT-29, 48 h
A549 [27] = assay: Inhibition of cell migration in human A549 cells at 1.25 uM measured at 24 hrs by wound healing assay (reference value: 68.4%); type: functional
A549 [28] = assay: cells; type: functional, cell-based; conditions: Homo sapiens, A549, 48 h
Description: Anticancer activity against human A549 cells assessed as inhibition of cell growth measured for 48 hrs by MTT assay

A549 [29] = assay: Induction of apoptosis in human A549 cells assessed as increase in caspase 3 level at 2.5 to 5 uM incubated for 48 hrs by Western blot analysis; type: functional, cell-based; conditions: dose 2.5-5 µM
[30] = Toxicity in zebrafish embryo assessed as effect on body length at 0.5 to 2.5 uM measured after 96 hrs post fertilization by microscopic analysis; parameters: species or system Danio rerio; conditions: in vivo, dose 0.5-2.5 µM
A549 [31] = assay: Induction of cell cycle arrest in human A549 cells assessed as accumulation at G2/M phase at 2.5 to 5 uM incubated for 24 to 48 hrs by PI-staining based flow cytometric analysis; type: functional; conditions: dose 2.5-5 µM, time 24-48 hrs
[32] = Toxicity in zebrafish embryo assessed as hatching rate at 0.5 to 2.5 uM measured after 72 hrs post fertilization by microscopic analysis; parameters: species or system Danio rerio; conditions: in vivo, dose 0.5-2.5 µM
HT-29 [33] = assay: Inhibition of cell migration in human HT-29 cells assessed as downregulation of vimentin level at 1 to 2 uM incubated for 48 hrs by Western blot analysis; type: functional, cell-based; conditions: dose 1-2 µM
[34] = biological target: T1, Histone deacetylase (Homo sapiens); assay: Inhibition of HDAC in human A549 cells incubated for 48 hrs by Western blot analysis; type: cell-based; conditions: dose 0.1-10 µM
[35] = biological target: T1, Histone deacetylase (Homo sapiens); assay: Inhibition of HDAC in human HT-29 cells assessed as increase in histone acetylation level at 1 to 2 uM incubated for 48 hrs by Western blot analysis; type: cell-based; conditions: dose 1-2 µM
A549 [36] = assay: Induction of apoptosis in human A549 cells assessed as upregulation of p53 expression at 2.5 to 5 uM incubated for 48 hrs by Western blot analysis; type: functional, cell-based; conditions: dose 2.5-5 µM
[37] = biological target: T1, Histone deacetylase (Homo sapiens); assay: Inhibition of HDAC in human HT-29 cells incubated for 48 hrs by Western blot analysis; type: cell-based; conditions: dose 0.1-10 µM

COc1ccc(S(=O)(=O)n2cc(Cc3ccc(C(=O)Nc4ccccc4N)cc3)c3ccccc32)cc1
Activity (A549 [1]): Active | Activity (A549 [2]): Active | Activity (HT-29 [3]): Active | Activity [4]: Non-Toxic | wound area remaining at 0.5 µM (HT-29 [5]): 93.8% | Activity [6]: Non-Toxic | inhibition (HT-29 [7]): Active | Activity [8]: Non-Toxic | Activity [9]: Non-Toxic | inhibition (HT-29 [10]): Active | Activity (A549 [11]): Active | IC50 (HT-29 [12]): 0.92 µM | inhibition [13]: Active | wound area remaining at 1.25 µM (A549 [14]): 53.3% | survival at 72 h, up to 2.5 µM [15]: ~100% | wound area remaining at 1.25 µM (A549 [16]): 100% | Activity (HT-29 [17]): Active | inhibition (HT-29 [18]): Active | Activity (NCI-H1299): Active | Activity (A549 [19]): Active | Activity (A549 [20]): Dose-Dependent Effect | wound area remaining at 0.5 µM (HT-29 [21]): 100% | Activity (HT-29 [22]): Dose-Dependent Effect | Activity (A549 [23]): Active | inhibition (A549 [24]): Active | Activity (A549 [25]): Active | wound area remaining at 0.5 µM (HT-29 [26]): 90.1% | inhibition at 1.25 µM (A549 [27]): 77.4% | IC50 (A549 [28]): 2.52 µM | Activity (A549 [29]): Active | Activity [30]: Non-Toxic | Activity (A549 [31]): Active | Activity [32]: 100% | inhibition (HT-29 [33]): Active | inhibition [34]: Active | inhibition [35]: Active | Activity (A549 [36]): Active | inhibition [37]: Active
